Experimental data taken from ChEMBL document CHEMBL4190263, “Bacterial Production of a Pederin Analogue by a Free-Living Marine Alphaproteobacterium” (2017).

Assays:
Assay type in all cases: functional
MDA-MB-231 = assay: Antiproliferative activity against human MDA-MB-231 cells assessed as growth inhibition after 72 hrs by SRB assay; conditions: MDA-MB-231, 72 h
HT-29 = assay: Antiproliferative activity against human HT-29 cells assessed as growth inhibition after 72 hrs by SRB assay; conditions: HT-29, 72 h
PSN1 = assay: Antiproliferative activity against human PSN1 cells assessed as growth inhibition after 72 hrs by SRB assay; conditions: PSN1, 72 h
A549 = assay: Antiproliferative activity against human A549 cells assessed as growth inhibition after 72 hrs by SRB assay; conditions: A549, 72 h

Measured: GI50

C=C1C[C@](OC)([C@H](O)C(=O)N[C@@H](OC)[C@@H]2C[C@@H](O)C(C)(C)[C@@H](C[C@@H](CO)OC)O2)O[C@H](C)[C@@H]1C
2 to 2.9 nM: all assays above
